Among the data in ChEMBL document CHEMBL1944507, “Structure-activity relationships for amide-, carbamate-, and urea-linked analogues of the tuberculosis drug (6S)-2-nitro-6-{[4-(trifluoromethoxy)benzyl]oxy}-6,7-dihydro-5H-imidazo[2,1-b][1,3]oxazine (PA-824)” (J Med Chem, 2012) are MIC values, retold here.

For this test, the system named is Mycobacterium tuberculosis variant bovis. Briefly: Antimicrobial activity against Mycobacterium bovis. The format is functional.

Values after ≈ are worked out from the molar mass of the structure shown.

In general, MIC refers to the lowest concentration that inhibits growth of the organism. Read a low MIC as greater potency. `O=C(NCc1ccc(OC(F)(F)F)cc1)O[C@@H]1COc2nc([N+](=O)[O-])cn2C1` registered an MIC of 0.075 µM (≈ 0.0302 µg/mL).
`O=C(Nc1ccc(OC(F)(F)F)cc1)O[C@@H]1COc2nc([N+](=O)[O-])cn2C1` displayed an MIC of 0.039 µM (≈ 0.0151 µg/mL).
For `O=C(N[C@@H]1COc2nc([N+](=O)[O-])cn2C1)OCc1ccc(OC(F)(F)F)cc1` the value was 0.037 µM (≈ 0.0149 µg/mL); for `O=C(Nc1ccc(OC(F)(F)F)cc1)N[C@@H]1COc2nc([N+](=O)[O-])cn2C1`, 0.039 µM (≈ 0.0151 µg/mL); for `O=C(N[C@@H]1COc2nc([N+](=O)[O-])cn2C1)c1ccc(OC(F)(F)F)cc1`, 1.34 µM (≈ 0.499 µg/mL).
The figure for `O=[N+]([O-])c1cn2c(n1)OC[C@@H](OCc1ccc(OC(F)(F)F)cc1)C2` [PRETOMANID] is 0.167 µM (≈ 0.06 µg/mL).
